Patent US20120172503A1, “AMORPHOUS SOLID MODIFICATION OF BIS(2,4-DICUMYLPHENYL) PENTAERYTHRITOL DIPHOSPHITE” (priority 2002, published 2012)

Assay: Dissolving rate and solubility in organic materials versus crystalline form
Details: in polymers and lubricants; compared to the prior art crystalline form

bis(2,4-dicumylphenyl)pentaerythritol diphosphite [Example 1]
rate of dissolving in organic materials: faster rate of dissolving
solubility in organic materials: better solubility
